# ChEMBL document CHEMBL5620353, “Novel antifungal triazoles with alkynyl-methoxyl side chains: Design, synthesis, and biological activity evaluation” (Eur J Med Chem, 2023)
# Active and inactive are the calls of the source. The rule behind the calls is not given here.
# How the values were obtained:
# [1] = molecular target: T1, Lanosterol 14-alpha demethylase (Candida albicans (strain SC5314 / ATCC MYA-2876) (Yeast), UniProt P10613); assay: Inhibition of Lanosterol 14-alpha demethylase in Candida albicans SC5314 assessed as remaining ergosterol level at 8 ug/ml incubated for 8 hrs by GC-MS analysis (reference value: 89.76%); settings: at 8 µg/mL
# T1 sequence (P10613 whole entry): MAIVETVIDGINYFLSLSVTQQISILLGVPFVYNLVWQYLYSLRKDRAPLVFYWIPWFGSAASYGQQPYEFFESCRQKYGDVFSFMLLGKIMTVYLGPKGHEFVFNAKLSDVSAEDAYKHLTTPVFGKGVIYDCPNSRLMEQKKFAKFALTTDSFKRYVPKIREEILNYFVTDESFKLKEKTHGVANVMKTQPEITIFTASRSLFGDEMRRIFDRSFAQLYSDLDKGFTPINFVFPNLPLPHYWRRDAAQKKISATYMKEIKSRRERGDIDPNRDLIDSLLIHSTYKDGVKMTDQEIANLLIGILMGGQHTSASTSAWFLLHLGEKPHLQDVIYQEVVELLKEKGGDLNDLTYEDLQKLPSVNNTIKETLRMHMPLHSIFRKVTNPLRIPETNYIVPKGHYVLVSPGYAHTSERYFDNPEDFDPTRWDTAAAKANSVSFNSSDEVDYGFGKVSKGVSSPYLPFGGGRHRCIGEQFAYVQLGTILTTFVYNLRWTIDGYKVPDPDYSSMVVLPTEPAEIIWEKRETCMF
# [2] = molecular target: T1, Lanosterol 14-alpha demethylase; assay: Inhibition of Lanosterol 14-alpha demethylase in Candida albicans SC5314 assessed as increase in 14alpha-methylfecosterol level at 8 ug/ml incubated for 8 hrs by GC-MS analysis relative to control; set-up: scale not given: the % may be the effect or the level left; settings: at 8 µg/mL
# Candida albicans = assay: Antifungal activity against Candida albicans SC5314 infected in Galleria mellonella larvae assessed as increase in survival rate at 2 mg/kg measured after 10 days post inoculation; format: functional, organism-based; settings: time 10.0 day
Compound,Activity [1],Activity [2],Activity (Candida albicans)
C[C@@H](OCC#Cc1ccncc1)[C@](O)(Cn1cncn1)c1ccc(F)cc1F,1.1%,,
C[C@@H](OCC#Cc1ccc(C#N)cc1)[C@](O)(Cn1cncn1)c1ccc(F)cc1F,,36.87%,inactive
